Columns and labels:
Neutrophils (CD11b+) = assay type: cell-based, human
[1] = test system: Basophils (CD63+/CD203c+); experiment: Basophil activation by COVID-19 vaccines and vaccine components, blood of a hypersensitive subject; assay type: cell-based, human; details: subject with known allergic reaction to mRNA-1273 booster

Compound | percent neutrophil activation versus control, vaccine components (Neutrophils (CD11b+)) | basophil activation and gross granulocyte activation in response to vaccine components [1]
CCO [ethanol] | did not | 
2-hydroxypropyl-β-cyclodextrin [HBCD] | higher percent neutrophil activation versus control | 
polysorbate-80 [PS80] | higher percent neutrophil activation versus control | marked increase
2-[(polyethylene glycol)-2000]-N,N-ditetradecylacetamide [ALC0159] | higher percent neutrophil activation versus control | marked increase
CCCCCCCCCCCCCCCCCC(=O)OC[C@H](COP(=O)([O-])OCC[N+](C)(C)C)OC(=O)CCCCCCCCCCCCCCCCC [DSPC, 1,2-diastearoyl-sn-glycero-3-phosphocholine] | did not | 
CCCCCCCCC(CCCCCC)C(=O)OCCCCCCN(CCCCO)CCCCCCOC(=O)C(CCCCCC)CCCCCCCC (stereo not shown) [ALC0315] | higher percent neutrophil activation versus control | marked increase
CCCCCCCCCCCOC(=O)CCCCCN(CCO)CCCCCCCC(=O)OC(CCCCCCCC)CCCCCCCC [SM102] | higher percent neutrophil activation versus control | marked increase
2,2-dimyristoyl-rac-glycero3-methoxypolyethylene glycol-2000 [PEG2000-DMG] | higher percent neutrophil activation versus control | marked increase

From US20250327794A1, “FLUOROMETRIC METHODS FOR DETECTION OF ALLERGIC SENSITIVITY TO ENVIRONMENTAL, FOODSTUFF, AND MEDICAMENT STIMULANTS” (CELL SCIENCE SYSTEMS CORPORATION, priority 2022, published 2025)
